ChEMBL document CHEMBL3763033, “New quinoline derivatives as nicotinic receptor modulators” (Eur J Med Chem, 2016)
The source made the active and inactive calls. The calls are words filed in the database; no cut-off is given here.

What was measured:
[1] = Displacement of [3H]methyllycaconitine from Sprague-Dawley rat brain alpha7* nAChR incubated for 2.5 hrs by liquid scintillation counting analysis; assay type: tissue-based
Rattus norvegicus [2] = species on record: Rattus norvegicus; assay: Displacement of [3H]methyllycaconitine from Sprague-Dawley rat brain alpha7* nAChR at 1 uM incubated for 2.5 hrs by liquid scintillation counting analysis; assay type: tissue-based
Rattus norvegicus [3] = species on record: Rattus norvegicus; assay: Displacement of [3H]cytisine from Wistar rat cerebral cortex alpha4beta2* nAChR at 1 uM incubated for 75 mins by competition binding assay; assay type: tissue-based
[4] = Displacement of [3H]cytisine from Wistar rat cerebral cortex alpha4beta2* nAChR incubated for 75 mins by competition binding assay; assay type: tissue-based
Gallus gallus [5] = species on record: Gallus gallus; assay: Activation of chicken alpha7/GlyR chimeric receptor expressed in Xenopus oocytes at 50 uM after 36 to 72 hrs by two electrode voltage clamp method; assay type: cell-based
[6] = target: T1, Neuronal acetylcholine receptor subunit alpha-7 (Homo sapiens, UniProt P36544); assay: (§1) Antagonist activity at human alpha7 receptor expressed in mouse Neuro2a cells assessed as inhibition of acetylcholine iodide-induced intracellular calcium level at 300 uM preincubated with PNU-120596 for 20 mins followed by acetylcholine iodide addition along with compound treatment measured every 2 sec for 3 mins by fluorescence microplate reader analysis; assay type: cell-based
Rattus norvegicus [7] = species on record: Rattus norvegicus; assay: Selectivity ratio of Ki for Sprague-Dawley rat brain alpha7* nAChR to Ki for Wistar rat cerebral cortex alpha4beta2* nAChR; assay type: tissue-based
Rattus norvegicus [8] = species on record: Rattus norvegicus; assay: Activation of rat alpha4beta2* nAChR expressed in Xenopus oocytes at 50 uM after 36 to 72 hrs by two electrode voltage clamp method; assay type: cell-based
Rattus norvegicus [9] = species on record: Rattus norvegicus; assay: (§2) Antagonist activity at rat alpha4beta2* nAChR expressed in Xenopus oocytes assessed as inhibition of epibatidine-induced ion current at 50 uM preincubated with compound followed by 1 uM epibatidine addition along with compound treatment measured after 36 to 72 hrs by two electrode voltage clamp method; assay type: cell-based
Gallus gallus [10] = species on record: Gallus gallus; assay: as §2, with “chicken alpha7/GlyR chimeric receptor” for “rat alpha4beta2* nAChR”, “acetylcholine-induced” for “epibatidine-induced”, “100” for “1”, “acetylcholine” for “epibatidine”; assay type: cell-based
[11] = target: T1, Neuronal acetylcholine receptor subunit alpha-7; assay: Agonist activity at human alpha7 receptor expressed in mouse Neuro2a cells assessed as induction of intracellular calcium level preincubated with PNU-120596 for 20 mins followed by compound addition measured every 2 sec for 3 mins by fluorescence microplate reader analysis; assay type: cell-based
[12] = target: T1, Neuronal acetylcholine receptor subunit alpha-7; assay: Agonist activity at human alpha7 receptor expressed in mouse Neuro2a cells assessed as induction of intracellular calcium level measured every 2 sec for 3 mins by fluorescence microplate reader analysis in presence of 2 uM alpha7 receptor antagonist alpha-cobratoxin; assay type: cell-based
Rattus norvegicus [13] = species on record: Rattus norvegicus; assay: Selectivity ratio of Ki for Wistar rat cerebral cortex alpha4beta2* nAChR to Ki for Sprague-Dawley rat brain alpha7* nAChR; assay type: tissue-based
[14] = target: T1, Neuronal acetylcholine receptor subunit alpha-7; assay: as §1, with “50” for “300”; assay type: cell-based

T1 sequence (P36544 whole entry): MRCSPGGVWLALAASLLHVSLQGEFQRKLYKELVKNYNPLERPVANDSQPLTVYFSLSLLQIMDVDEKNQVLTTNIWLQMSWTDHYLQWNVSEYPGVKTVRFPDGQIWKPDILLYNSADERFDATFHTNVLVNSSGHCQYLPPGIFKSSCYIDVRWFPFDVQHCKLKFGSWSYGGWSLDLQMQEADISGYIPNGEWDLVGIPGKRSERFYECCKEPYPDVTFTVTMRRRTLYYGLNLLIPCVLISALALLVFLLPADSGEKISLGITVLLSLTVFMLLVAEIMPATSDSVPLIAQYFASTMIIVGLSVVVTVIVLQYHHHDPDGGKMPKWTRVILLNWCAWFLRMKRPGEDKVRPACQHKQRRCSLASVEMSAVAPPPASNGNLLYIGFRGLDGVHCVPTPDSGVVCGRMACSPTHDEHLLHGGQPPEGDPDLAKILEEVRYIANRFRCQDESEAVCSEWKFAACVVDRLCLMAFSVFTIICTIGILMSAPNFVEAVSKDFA

SMILES | Activity (Rattus norvegicus [2]) [%] | Activity (Rattus norvegicus [3]) [%] | further results
Cc1ccc2oc(N3CCN4CCC3CC4)nc2n1 |  |  | Ki [1]: 13.5 nM
C[N+]12CCC(C1)N(C(=O)c1ccc3ncccc3c1)CC2 (stereo not given) | < 20 | < 20 | 
C[N+]12CCC(CC1)N(C(=O)c1ccc3ncccc3c1)CC2 | < 20 | < 20 | 
O=C(c1ccc2cccnc2c1)N1CCN2CCC1C2 (stereo not given) | < 20 | < 20 | 
c1cnc2ccc(N3CCN4CCC3C4)cc2c1 (stereo not given) |  |  | Ki [4]: 412 nM; Activity (Gallus gallus [5]): inactive; inhibition [6]: Active; Ratio Ki (Rattus norvegicus [7]): 2; Activity (Rattus norvegicus [8]): inactive; inhibition (Rattus norvegicus [9]): Active; inhibition (Gallus gallus [10]): Active; Ki [1]: > 1000 nM
C[N+]12CCC(CC1)C(NC(=O)c1cccc3cnccc13)C2 (stereo not given) | < 20 | < 20 | 
O=C(c1cccc2cnccc12)N1CCN2CCC1CC2 | < 20 | < 20 | 
c1cc(N2CCN3CCC2C3)c2cccnc2c1 (stereo not given) | < 20 | < 20 | 
O=C(N[C@H]1CN2CCC1CC2)c1ccc(Cl)cc1 [PNU-282987] |  |  | Ki [1]: 24 nM
O=C(c1ccc2cccnc2c1)N1CCN2CCC1CC2 | < 20 | < 20 | 
C[N+]12CCC(CC1)C(NC(=O)c1ccc3ncccc3c1)C2 (stereo not given) | < 20 | < 20 | 
C[N+]12CCC(CC1)N(C(=O)c1cccc3cnccc13)CC2 | < 20 | < 20 | 
C[N+]12CCC(CC1)C(NC(=O)c1ccc3cccnc3c1)C2 (stereo not given) | < 20 | < 20 | 
c1cnc2cc(N3CCN4CCC3CC4)ccc2c1 |  |  | Ki [4]: > 1000 nM; Activity (Gallus gallus [5]): inactive; EC50 [11]: 1090 nM; Activity (Rattus norvegicus [8]): inactive; Activity [12]: inactive; inhibition (Rattus norvegicus [9]): Active; inhibition (Gallus gallus [10]): Active; Ratio Ki (Rattus norvegicus [13]): 3; Ki [1]: 117 nM
O=C(c1ccc2ncccc2c1)N1CCN2CCC1C2 (stereo not given) | < 20 | < 20 | 
C[N+]12CCC(CC1)N(C(=O)c1ccc3cccnc3c1)CC2 | < 20 | < 20 | 
O=C(c1ccc2ncccc2c1)N1CCN2CCC1CC2 | < 20 | < 20 | 
c1cncc(C2CCC3CCN2CC3)c1 (stereo not given) |  |  | Ki [1]: 11 nM
C[N+]12CCC(C1)N(C(=O)c1ccc3cccnc3c1)CC2 (stereo not given) | < 20 | < 20 | 
c1cnc2ccc(N3CCN4CCC3CC4)cc2c1 |  |  | Ki [4]: > 1000 nM; Activity (Gallus gallus [5]): inactive; EC50 [11]: 1410 nM; Activity (Rattus norvegicus [8]): inactive; Activity [12]: inactive; inhibition (Rattus norvegicus [9]): Active; inhibition (Gallus gallus [10]): Active; Ratio Ki (Rattus norvegicus [13]): 10; Ki [1]: 96 nM

SMILES | Activity (Rattus norvegicus [2]) [%] | Activity (Rattus norvegicus [3]) [%] | further results
O=C(c1cccc2cnccc12)N1CCN2CCC1C2 (stereo not given) | < 20 | < 20 | 
O=C(Oc1ccc(Br)cc1)N1CCN2CCC1CC2 [SSR180711] |  |  | Ki [1]: 22 nM
C[N+]12CCC(C1)N(c1cccc3ncccc13)CC2 (stereo not given) | < 20 | < 20 | 
c1cnc2cc(N3CCN4CCC3C4)ccc2c1 (stereo not given) | < 20 | < 20 | 
c1cc2cc(N3CCN4CCC3CC4)ccc2cn1 |  |  | Ki [4]: > 1000 nM; Ratio Ki (Rattus norvegicus [13]): 3; Ki [1]: 248 nM
c1cc(N2CCN3CCC2CC3)c2cccnc2c1 | < 20 | < 20 | 
CCN1C[C@]2(COC(=O)c3ccccc3N3C(=O)CC(C)C3=O)CC[C@H](OC)[C@@]34C2[C@H](OC)[C@](O)(C13)[C@@]1(O)C[C@H](OC)[C@H]2C[C@@H]4[C@@H]1[C@H]2OC (stereo not given in full) |  |  | Ki [1]: 1.4 nM
C[N+]12CCC(C1)N(C(=O)c1cccc3cnccc13)CC2 (stereo not given) | < 20 | < 20 | 
c1cnc2ccc(C3CN4CCC3CC4)cc2c1 (stereo not given) | < 20 | < 20 | 
O=C(N[C@H]1CN2CCC1CC2)c1cc2cccc(Cl)c2s1 [ENCENICLINE] |  |  | Ki [1]: 9.98 nM
O=C(NC1CN2CCC1CC2)c1ccc2ncccc2c1 (stereo not given) | < 20 | < 20 | 
O=C(NC1CN2CCC1CC2)c1ccc2cccnc2c1 (stereo not given) |  |  | Ki [4]: > 1000 nM; Activity (Gallus gallus [5]): inactive; EC50 [11]: 1570 nM; Activity (Rattus norvegicus [8]): inactive; Activity [12]: inactive; inhibition (Rattus norvegicus [9]): Active; inhibition (Gallus gallus [10]): Active; Ratio Ki (Rattus norvegicus [13]): 3; Ki [1]: 287 nM; inhibition [14]: Active
C[N+]12CCC(C1)N(c1ccc3cnccc3c1)CC2 (stereo not given) | < 20 | < 20 | 
c1cc2cc(N3CCN4CCC3C4)ccc2cn1 (stereo not given) | < 20 | < 20 | 
C[N+]12CCC(C1)N(c1ccc3ncccc3c1)CC2 (stereo not given) | < 20 | < 20 | 
CN1CCC[C@H]1c1cccnc1 [NICOTINE] |  |  | Ki [4]: 2.3 nM
O=C(NC1CN2CCC1CC2)c1cccc2cnccc12 (stereo not given) | < 20 | < 20 | 
C[N+]12C=C(c3ccc4ncccc4c3)C(CC1)CC2 | < 20 | < 20 | 
C1=C(c2ccc3ncccc3c2)C2CCN1CC2 | < 20 | < 20 | 
